The values below come from ChEMBL document CHEMBL1201862, “PubChem BioAssay data set” (2004).

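Each compound was tested at five concentrations against cells in 96-well plates for 48 hours. Abbreviation: GI50, concentration required for 50% inhibition of growth.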 Active and inactive are the calls of the source. Rule as the data show it: active = GI50 up to about 1.1 µM and inactive = higher. Bounds are passed on as bounds.

Some test systems named below: OVCAR-4; RXF 393; HT-29; HOP-92; MDA-MB-435; UACC-62; ACHN; SK-MEL-28; SF-295; IGROV-1; T47D; UACC-257; SK-OV-3; SN12C; K562; PC-3; HL-60; SF-539; HCC 2998.
Common to all, as to assay: DTP human tumour cell line panel, 48 h

In the case of `O=C1c2ccccc2C(=O)c2c(Nc3cc4c5c(ccc6c7ccc8c9c(cc(Nc%10cccc%11c%10C(=O)c%10ccccc%10C%11=O)c(c3c56)c97)-c3ccccc3C8=O)C(=O)c3ccccc3-4)cccc21`, the GI50 in the experiment with OVCAR-4 was 65.8 µM (inactive); in the experiment with RXF 393, 60.3 µM (inactive); in the experiment on HT-29, > 100 µM (inactive); in the experiment with HOP-92, 41.8 µM (inactive); in the experiment on MDA-MB-435, 41.1 µM (inactive); in the experiment with UACC-62 it was > 100 µM (inactive). Moreover, the GI50 in the experiment on ACHN is 36.1 µM (inactive); with SK-MEL-28 it was > 100 µM (inactive); in the experiment on SF-295, 44 µM (inactive); in the experiment on IGROV-1, 24.6 µM (inactive); in the experiment on T47D, > 100 µM (inactive); in the experiment with UACC-257, > 100 µM (inactive). The GI50 in the experiment with SK-OV-3 is 16.6 µM (inactive); in the experiment on SN12C, > 100 µM (inactive); with K562, 75 µM (inactive); in the experiment on PC-3, 70.6 µM (inactive).
For `CC1CCCCNC1=S` (stereo not given), the GI50 in the experiment on RXF 393, in the experiment on HT-29, in the experiment on HOP-92, with MDA-MB-435, with UACC-62 and with ACHN was > 10 µM (inactive) throughout. For the same molecule, the GI50 in the experiment on SK-MEL-28, with SF-295, in the experiment with IGROV-1, in the experiment with T47D, in the experiment on UACC-257 and in the experiment with SK-OV-3 was > 10 µM (inactive) in each case. Besides, the GI50 with HL-60, with SN12C, in the experiment on K562, with SF-539 and with PC-3 was > 10 µM (inactive) each time.
Take `C/C=C1/CN2CC[C@@H]3c4ccccc4N4[C@H](C(=O)OC)[C@H]1C[C@H]2[C@]34/C=C/C1=COC[C@@H]2[C@H]1C[C@H]1c3c(c4ccccc4n3C)C[C@@H]2N1C`: the GI50 in the experiment with OVCAR-4 was 3.61 µM (inactive); in the experiment with RXF 393 it was 4.19 µM (inactive); in the experiment on HT-29, 2.77 µM (inactive); in the experiment with HOP-92, 4.28 µM (inactive); with MDA-MB-435 it was 3.26 µM (inactive); in the experiment on UACC-62 it was 4.86 µM (inactive). The GI50 is 4.03 µM (inactive) in the experiment with ACHN; 5.15 µM (inactive) with SK-MEL-28; 4.45 µM (inactive) in the experiment with SF-295; 4.57 µM (inactive) in the experiment with IGROV-1; 0.345 µM (active) in the experiment on HCC 2998; 4.23 µM (inactive) in the experiment with T47D. In addition, the GI50 is 4.52 µM (inactive) with UACC-257; 4.57 µM (inactive) in the experiment on SK-OV-3; 4.33 µM (inactive) in the experiment with SN12C; 6.15 µM (inactive) in the experiment with K562; 4.15 µM (inactive) in the experiment with SF-539; 2.9 µM (inactive) in the experiment on PC-3.
`C1CN(c2nc3c(nnc4nc(N5CCOCC5)sc43)s2)CCO1`: the GI50 in the experiment on OVCAR-4 is > 100 µM (inactive); in the experiment with RXF 393, > 100 µM (inactive); in the experiment on HT-29, > 100 µM (inactive); in the experiment with HOP-92, 29.4 µM (inactive); in the experiment on MDA-MB-435, > 100 µM (inactive); with UACC-62 it was > 100 µM (inactive). For the same molecule, the GI50 with ACHN is > 100 µM (inactive); in the experiment with SK-MEL-28 it was > 100 µM (inactive); in the experiment on SF-295, > 100 µM (inactive); in the experiment with IGROV-1, > 100 µM (inactive); with T47D it was 23.7 µM (inactive); in the experiment on UACC-257 it was > 100 µM (inactive). For the same molecule, the GI50 with HL-60 was > 100 µM (inactive); in the experiment with SN12C, 96.6 µM (inactive); in the experiment on K562, > 100 µM (inactive); with SF-539, > 100 µM (inactive); in the experiment on PC-3, > 100 µM (inactive).
In the case of `Cn1c2ccccc2n2c(=O)c(-c3ccc(O)cc3)nnc12`, the GI50 in the experiment with OVCAR-4 is > 100 µM (inactive); with HT-29, > 100 µM (inactive); in the experiment with HOP-92 it was > 100 µM (inactive); in the experiment with MDA-MB-435 it was > 100 µM (inactive); in the experiment on ACHN it was 70 µM (inactive); in the experiment on SK-MEL-28, > 100 µM (inactive). Also, the GI50 is 18.3 µM (inactive) with SF-295; > 100 µM (inactive) with IGROV-1; > 100 µM (inactive) in the experiment with HCC 2998; > 100 µM (inactive) with T47D; > 100 µM (inactive) with UACC-257; > 100 µM (inactive) with HL-60. For the same molecule, the results for the GI50 with SN12C, in the experiment with SF-539 and in the experiment on PC-3 were > 100 µM (inactive), 35 µM (inactive) and > 100 µM (inactive), respectively.
In the case of `O=C1/C(=C/c2cccc([N+](=O)[O-])c2)N=C(c2ccccc2)N1c1nc2ccc(Sc3ccccc3)cc2[nH]1`, the GI50 in the experiment on OVCAR-4 is 49.3 µM (inactive); in the experiment with RXF 393 it was 74.3 µM (inactive); with HT-29, 45.2 µM (inactive); with HOP-92, 71.4 µM (inactive); in the experiment on MDA-MB-435, 13.3 µM (inactive); in the experiment with UACC-62, 36.1 µM (inactive). Further, the GI50 in the experiment on ACHN is > 100 µM (inactive); with SK-MEL-28 it was 84.7 µM (inactive); in the experiment on SF-295, 35.7 µM (inactive); with IGROV-1 it was 37.8 µM (inactive); in the experiment on HCC 2998, 67.6 µM (inactive); in the experiment with T47D it was 47.2 µM (inactive). The GI50 in the experiment with UACC-257 was 42 µM (inactive); in the experiment with SK-OV-3 it was 34.4 µM (inactive); with SN12C, 60 µM (inactive); with K562, 30.9 µM (inactive); in the experiment with SF-539, 57.4 µM (inactive); in the experiment with PC-3, 35.4 µM (inactive).
Take `Cc1ccc(S(=O)(=O)NC(C(=O)O)C(C)C)cc1` (stereo not given): the GI50 in the experiment on OVCAR-4, in the experiment on RXF 393, in the experiment on HT-29, in the experiment on HOP-92, in the experiment on MDA-MB-435 and in the experiment on UACC-62 was > 100 µM (inactive) in each case. For the same molecule, the GI50 in the experiment on ACHN, in the experiment with SK-MEL-28, with SF-295, with IGROV-1, in the experiment on HCC 2998 and with T47D was > 100 µM (inactive) each time. In addition, the GI50 in the experiment with UACC-257, with SN12C, in the experiment on K562 and with PC-3 was > 100 µM (inactive) throughout.
Turning to `COc1ccc2c(c1)C(=O)CC1c3cnccc3C(=O)N21` (stereo not given), the GI50 with OVCAR-4 is > 100 µM (inactive); in the experiment on RXF 393 it was > 75.9 µM (inactive); in the experiment on HT-29, > 100 µM (inactive); in the experiment on HOP-92 it was > 100 µM (inactive); in the experiment with MDA-MB-435 it was > 31.6 µM (inactive); in the experiment with UACC-62 it was > 63.7 µM (inactive). Besides, the GI50 is > 100 µM (inactive) with ACHN; > 91.2 µM (inactive) with SK-MEL-28; > 100 µM (inactive) in the experiment with SF-295; > 85.1 µM (inactive) in the experiment on IGROV-1; > 86.1 µM (inactive) in the experiment with HCC 2998; > 100 µM (inactive) in the experiment with T47D. Further, the GI50 was > 100 µM (inactive) with UACC-257; > 100 µM (inactive) in the experiment with SK-OV-3; > 100 µM (inactive) with SN12C; > 94.8 µM (inactive) in the experiment on K562; > 100 µM (inactive) in the experiment on SF-539; > 100 µM (inactive) in the experiment with PC-3.
`CCOC(=O)C1=C(O)C2C3CC4C2C(O)=C(C(=O)OCC)C2C1C3C42` (stereo not given): the GI50 is > 100 µM (inactive) in the experiment on OVCAR-4; > 100 µM (inactive) with RXF 393; > 100 µM (inactive) in the experiment with HT-29; 95.5 µM (inactive) in the experiment with HOP-92; > 100 µM (inactive) in the experiment on MDA-MB-435; > 100 µM (inactive) with UACC-62. The GI50 in the experiment on ACHN, with SK-MEL-28, in the experiment on SF-295, in the experiment with IGROV-1, with T47D and with UACC-257 was > 100 µM (inactive) in each case. For the same molecule, the GI50 is > 100 µM (inactive) in the experiment on SK-OV-3; 24.8 µM (inactive) in the experiment on HL-60; > 100 µM (inactive) with SN12C; > 100 µM (inactive) in the experiment with K562; > 100 µM (inactive) in the experiment on SF-539; > 100 µM (inactive) in the experiment on PC-3.
In the case of `CN1CCOC1(C)CO` (stereo not given), the GI50 in the experiment with OVCAR-4, in the experiment with RXF 393, in the experiment on HT-29, in the experiment with HOP-92, with MDA-MB-435 and with UACC-62 was > 100 µM (inactive) each time. Further, the GI50 in the experiment with ACHN, in the experiment on SF-295, in the experiment with IGROV-1, in the experiment with T47D, in the experiment with UACC-257 and in the experiment with SK-OV-3 was > 100 µM (inactive) throughout. The GI50 in the experiment with HL-60 was 50.8 µM (inactive); with K562, > 100 µM (inactive); in the experiment with SF-539, > 100 µM (inactive); in the experiment on PC-3, > 100 µM (inactive).
As to `Cc1cccc(-c2cc(=S)c3cc(N4CCCC4)ccc3[nH]2)c1`, the GI50 in the experiment on OVCAR-4, in the experiment with RXF 393, with HOP-92, with MDA-MB-435, with UACC-62 and in the experiment with ACHN was > 100 µM (inactive) throughout. The GI50 in the experiment on SK-MEL-28, with SF-295, with HCC 2998, in the experiment with T47D, in the experiment on UACC-257 and in the experiment on SK-OV-3 was > 100 µM (inactive) each time. The GI50 with SN12C, with K562, in the experiment with SF-539 and in the experiment on PC-3 was > 100 µM (inactive) in each case.

By GI50 is commonly meant the concentration at which growth is held to half of that of the control.
